According to US5086074A, “1-aminomethyl-1,2,3,4-tetrahydronaphthalenes” (Abbott Laboratories, priority 1990, dated 1992):
Counter-ions that a name gives are not always drawn.

Legend:
[1] = system: serotonin uptake; experiment: Biogenic amine uptake inhibition in rat brain synaptosomes, serotonin; type: biochemical, rat (Sprague-Dawley); conditions: tritiated amine 0.1 μM, 37° C., 4 minutes
Description: (§1) The ability of compounds of the invention to inhibit biogenic amine uptake is determined as outlined below.
(§2) Sprague-Dawley derived rats of either sex, weighing about 180-250 g, were killed by decapitation. The brains were immediately removed, placed on a glass plate chilled over crushed ice and dissected according to a modification of the method of Glowinski and Iversen (J. Neurochem. 13, 655-669, 1966). First, the rhombencephalon was separated by transverse section and discarded. The remaining tissue was bisected by a midline sagittal cut. The hypothalamus was removed using the anterior and posterior reference points, respectively. The hippocampus was peeled away and discarded and the striata were exposed and removed. Frontal cortical tissue was dissected from remaining brain structures. […] The tissues were placed in a cold Potter-Elvehjem glass homogenizer with 5 (cortex) or 10 (hypothalamus) and 20 (striatum) volumes of ice-cold 0.32M sucrose, pH 7.0 and homogenized by hand. The homogenate was centrifuged at 2500 rpm in a GLC centrifuge for 10 minutes in a refrigerated room. The supernatant fraction containing the synaptosomes was decanted, mixed thoroughly, and kept on crushed ice for use in the uptake studies.

[2] = system: norepinephrine uptake; experiment: Biogenic amine uptake inhibition in rat brain synaptosomes, norepinephrine; type: biochemical, rat (Sprague-Dawley); conditions: tritiated amine 0.1 μM, 37° C., 4 minutes; read-out: Biogenic Amine Uptake Inhibition IC50 Norephinephrine
Description: as §1, §2

[3] = system: dopamine uptake; experiment: Biogenic amine uptake inhibition in rat brain synaptosomes, dopamine; type: biochemical, rat (Sprague-Dawley); conditions: tritiated amine 0.1 μM, 37° C., 4 minutes
Description: as §1, §2

[4] = system: intraocular pressure of rabbits; experiment: Effects of topically administered compounds on intraocular pressure of rabbits; type: in vivo, rabbit (New Zealand albino); conditions: 0.3% soln., topical to cornea
Description: The effect on intraocular pressure of the compounds of the invention can be determined in rabbits by using the following method.
a. Method The intraocular pressure lowering effects of the compounds were evaluated in unanesthetized, male albino, New Zealand rabbits weighing 2.0 to 2.5 kg. The rabbits were placed in Plas Labs restraining devices for the duration of the experiment. Intraocular pressure (IOP) was measured with a Bausch and Lomb Applamatic Tonometer and recorded as the average of three individual readings at each time point in the experiment. Baseline IOP values were established at three time points separated by 30 minutes. Each compound or vehicle was applied topically to the cornea in a volume of 0.1 ml to one eye in each six rabbits. The contralateral eye was untreated. IOP was recorded at 5, 15, 30, 60 and 90 minutes after dosing.

[5] = target: T1, alpha-1-receptor (Rattus norvegicus, UniProt P15823); experiment: Radioligand binding, alpha-1 adrenoceptor, rat liver homogenates, [3H]-prazosin; conditions: rat liver homogenates, [3H]-prazosin; read-out: Ki alpha-1
T1 construct: rat liver homogenates; from tissue; host or cells: rat liver homogenate
T1 sequence (P15823 1-515): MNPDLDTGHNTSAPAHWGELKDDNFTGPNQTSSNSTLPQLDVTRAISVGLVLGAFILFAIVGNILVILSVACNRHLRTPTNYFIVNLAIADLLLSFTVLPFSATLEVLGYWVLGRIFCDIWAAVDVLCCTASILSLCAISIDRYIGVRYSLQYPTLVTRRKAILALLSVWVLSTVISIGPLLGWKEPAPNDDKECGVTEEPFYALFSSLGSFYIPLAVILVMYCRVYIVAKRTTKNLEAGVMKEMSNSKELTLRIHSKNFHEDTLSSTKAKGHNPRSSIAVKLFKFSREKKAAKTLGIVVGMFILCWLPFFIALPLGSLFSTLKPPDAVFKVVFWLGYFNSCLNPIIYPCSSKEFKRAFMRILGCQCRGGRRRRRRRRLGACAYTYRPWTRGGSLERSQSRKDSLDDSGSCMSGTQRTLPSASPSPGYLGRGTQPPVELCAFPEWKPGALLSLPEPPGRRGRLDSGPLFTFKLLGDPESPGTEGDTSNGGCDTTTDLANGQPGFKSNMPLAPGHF
Description: (§3) The compounds were assessed for alpha-adrenergic receptor subtype selectivity by use of radioligand binding techniques as described previously (DeBernardis et.al. J. Med. Chem. 28, 1398 (1985)).

[6] = system: alpha-2-receptor; experiment: Radioligand binding, alpha-2 adrenoceptor, rat cerebral cortices, [3H]-rauwolscine; conditions: ratio Ki alpha-1/Ki alpha-2
Description: as §3

Row | Compound | Ki [5] | alpha-2 - Selectivity Ki alpha-1/Ki alpha-2 [6] | other results
1 | 8-Fluoro-5,6-methylenedioxy-1-(3-phenylpyrrolidino-1-methyl) tetralin hydrochloride [Example 160] |  |  | IC50 [1]: 1.84 µM; IC50 [2]: 0.991 µM; IC50 [3]: 2.93 µM
2 | CN(CCc1ccccc1)CC1CCCc2cc(O)ccc21 (stereo not shown) [11 (HCl salt)] |  |  | % Change in Intraocular Pressure After Treatment Compared to Untreated Eye in Rabbits ([4]; 5 minutes): -38%; % Change in Intraocular Pressure After Treatment Compared to Untreated Eye in Rabbits ([4]; 15 minutes): -55%; % Change in Intraocular Pressure After Treatment Compared to Untreated Eye in Rabbits ([4]; 30 minutes): -54%; % Change in Intraocular Pressure After Treatment Compared to Untreated Eye in Rabbits ([4]; 60 minutes): -44%; % Change in Intraocular Pressure After Treatment Compared to Untreated Eye in Rabbits ([4]; 90 minutes): -20%
3 | CN(CCc1cccc(F)c1)CC1CCCc2cc(O)ccc21 (stereo not shown) [Example 10, 1-((N-Methylamino)methyl-N-(2-(m-fluorophenyl)ethyl))-6-hydroxy tetralin hydrochloride] |  |  | % Change in Intraocular Pressure After Treatment Compared to Untreated Eye in Rabbits ([4]; 5 minutes): -45%; % Change in Intraocular Pressure After Treatment Compared to Untreated Eye in Rabbits ([4]; 15 minutes): -31%; % Change in Intraocular Pressure After Treatment Compared to Untreated Eye in Rabbits ([4]; 30 minutes): -25%; % Change in Intraocular Pressure After Treatment Compared to Untreated Eye in Rabbits ([4]; 60 minutes): -36%; % Change in Intraocular Pressure After Treatment Compared to Untreated Eye in Rabbits ([4]; 90 minutes): -23%
4 | COc1ccc(C)c2c1CCCC2CN(C)CCc1cccs1 (stereo not shown) [Example 36, 1-((N Methylamino)methyl-N-(2-(2-thienyl)ethyl))-5-methoxy-8-methyl tetralin hydrochloride] | 0.655 µM | 95 | 
5 | CCOc1ccc2c(c1)CCCC2CN(C)CCc1cccc(N)c1 (stereo not shown) [Example 69, 1-((N-Methylamino)methyl-N-(2-(m-aminophenyl)ethyl))6-ethoxy tetralin dihydrochloride] | 1.27 µM | 98 | 
6 | COc1ccc2c(c1)CCCC2CN1CCC(c2ccccc2)C1 (stereo not shown) [Example 121, 6-Methoxy-1-(3-phenylpyrrolidino-1-methyl) tetralin hydrochloride] | 0.095 µM | 95 | 
7 | CN(CCc1cccs1)CC1CCCc2c(Cl)cccc21 (stereo not shown) [Example 129, 1-((N-Methylamino)methyl-N-(2-(2-thieny)ethyl))5-chloro tetralin hydrochloride] | 0.198 µM | 55 | 
8 | c1ccc(C2CCN(CC3CCCc4c3ccc3c4OCO3)C2)cc1 (stereo not shown) [Example 143a, 5,6-Methylenedioxy-1-(3-phenylpyrrolidino-1-methyl) tetralin methanesulfonate] | 0.051 µM | 43 | 
9 | COc1cccc2c1CCCC2CN1CCC(c2cccs2)C1 (stereo not shown) [Example 146, hydrochloride] | 0.17 µM | 35 | 
10 | Fc1ccc2c(c1)CCCC2CN1CCC(c2ccccc2)C1 (stereo not shown) [Example 148, 6-Fluoro-1-(3-phenylpyrrolidino-1-methyl) tetralin methanesulfonate] | 0.126 µM | 19 | 
11 | COc1ccc2c(c1)CCC2CN1CCC(c2cccs2)C1 (stereo not shown) [Example 151, 5-Methoxy-1-(3-(2-thienyl)pyrrolidino-1-methyl) indane hydrochloride] | 0.177 µM | 71 | 
12 | COc1ccc2c(c1)CCC2CN1CCC(c2cccc(F)c2)C1 (stereo not shown) [Example 153, 5-Methoxy-1-(3-(m-fluorophenyl)pyrrolidino-1-methyl) indane hydrochloride] | 0.058 µM | 7 | 
13 | Nc1ccc2c(c1)CCCC2CN1CCC(c2ccccc2)C1 (stereo not shown) [Example 156, 6-Amino-1-(3-phenylpyrrolidino-1-methyl) tetralin dihydrochloride] | 0.125 µM | 21 | 
14 | CN(CCc1cccc(F)c1)CC1CCCc2c1ccc1c2OCCO1 (stereo not shown) [Example 167, 1-((N-Methylamino)methyl-N-(2-m-fluorophenethyl))-5,6-ethylenedioxy tetralin methanesulfonate] | 0.357 µM | 85 | 
15 | CN(c1ccc2c(c1)CCCC2CN1CCC(c2ccccc2)C1)S(C)(=O)=O (stereo not shown) [Example 193, 6-(N-methylmethylsulfonamido)-1-(3-phenylpyrrolidino-1methyl)tetralin hydrochloride] | 0.121 µM | 93 | 
